Source: patent US10864211B2, “Hydroxy isoxazole compounds useful as GPR120 agonists” (Merck Sharp & Dohme Corp., priority 2016, dated 2020)
Counter-ions that a name gives are not always drawn.

These compounds were tested against T1, human GPR120 (Homo sapiens, UniProt Q5NUL3) (assay: Human GPR120 IP1 assay (inositol phosphate turnover)). Conditions: IP1 accumulation in CHO-K1 cells stably expressing the short form of human GPR120.
T1 construct: expressed in transfected cells; host or cells: CHO-K1
T1 sequence (Q5NUL3 1-361): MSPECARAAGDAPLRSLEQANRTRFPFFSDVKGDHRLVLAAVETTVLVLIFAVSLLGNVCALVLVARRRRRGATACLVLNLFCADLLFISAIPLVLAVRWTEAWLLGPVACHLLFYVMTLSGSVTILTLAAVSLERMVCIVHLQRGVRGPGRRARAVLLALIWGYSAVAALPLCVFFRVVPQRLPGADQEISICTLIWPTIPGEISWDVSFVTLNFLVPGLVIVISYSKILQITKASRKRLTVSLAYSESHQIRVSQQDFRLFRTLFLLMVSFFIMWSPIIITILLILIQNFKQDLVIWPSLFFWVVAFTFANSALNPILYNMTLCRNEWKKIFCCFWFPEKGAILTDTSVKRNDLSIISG
Type: cell-based
Description: The binding of small molecule agonists to the G-protein-coupled receptor GPR120 activates phospholipase C, and leads to the generation of inositol 1,4,5-trisphosphate (InsP3 or IP3). IP3 is subsequently de-phosphorylated to IP1, which accumulates in cells and is stable in the presence of lithium chloride.
In the present method, agonist-induced activation of the human and rat GPR120 receptor was monitored by measuring the accumulation of IP1 in CHO-K1 cells that were stably expressing the short form of human GPR120 (Accession #NM_001195755) or HEK293 cells stably expressing rat GPR120 (Accession #NM_001047088). Following agonist addition, GPR120 activation and subsequent accumulation of IP1 was measured using a homogeneous Time Resolved Fluorescence-based ELISA commercially available from CisBio (IP-one ELISA Kit). The IP-One ELISA was a competitive immunoassay which uses IP1 labeled with […] and a terbium cryptate-labeled anti-IP1 monoclonal antibody. […] The signal loss was then back calculated to IP1 concentration using an IP1 standard curve. Determination of IP1 concentration was a direct measure of GPR120 activation and was used to determine compound potency (EC50).
Human GPR120 stable cell-lines were generated in CHO cells. The expression plasmids were transfected using lipofectamine (Life Technologies) following manufacturer's instructions. Stable cell-lines were generated following drug selection and single cell cloning. Rat GPR120 stable cell-lines were generated in HEK cells using the Jump-In™ cell engineering platform (Life Technologies) following manufacturer's instructions. Stable cell-lines were generated following drug selection and single cell cloning.
The assay was performed in 384-well format. CHO cells stably expressing human GPR120 were plated at 20,000 cells per well in growth medium (DMEM/F12, 10% fetal calf serum). HEK293 cells stably expressing rat GPR120 were plated at […] per well in growth medium (DMEM, 10% fetal calf serum). Cell plates were then incubated 16 hours at 37 degrees in a 5% CO2 incubator. Measurement of Inositol Phosphate Turnover (IP1) was performed using the CisBio IP-One kit (Part number 62IPAPEB). After the 16 hour incubation, the growth media was removed by centrifugation using the BlueWasher (AusWasher GUI Ver. v1.0.1.8) Protocol #21-“Light Dry” and 10 μl of stimulation buffer (prepared as described in the kit) was added to each well. In a separate plate, compounds were diluted in DMSO (200-fold over the final concentration in the assay well) and 50 nl was acoustically transferred to the appropriate well in the assay cell plate. The plates were then incubated for 60 minutes at 37 degrees in a 5% CO2 incubator. 10 μl of detection buffer (also prepared as described in the IP-One kit) was added to each well and the plates were incubated at room temperature for 60 minutes in the dark. The plates were then read in a Perkin ElmerEnVision or equivalent reader able to measure FRET. Fluorescent ratio of emission at 665 and 620 nm was then converted to the IP1 concentration by back calculating from an IP1 standard curve prepared at the time of the assay. The data was normalized to % activity using a reference compound, and the EC50 values were determined using a standard 4-parameter fit.

Row | EC50 | SMILES
1 | 0.171 µM | Oc1cc(-c2cnc(O[C@H]3C[C@H](c4ccc(C5CC(F)(F)C5)cc4)C3)cn2)on1 [Example 29, 5-[5-({trans-3-[4-(3,3-difluorocyclobutyl)phenyl]cyclobutyl}oxy)pyrazin-2-yl]isoxazol-3-ol]
2 | 0.016 µM | Oc1cc(-c2ccc(O[C@H]3C[C@@H](c4ccnc(OC5CC5)c4)C3)nc2)on1 [Example 32, 5-[6-({cis-3-[2-(cyclopropyloxy)pyridin-4-yl]cyclobutyl}oxy)pyridin-3-yl]isoxazol-3-ol]
3 | 0.023 µM | Oc1cc(-c2ccc(O[C@H]3C[C@@H](c4ncc(C(F)(F)F)cc4F)C3)nc2)on1 [Example 9, sodium 5-[6-({cis-3-[3-fluoro-5-(trifluoromethyl)pyridin-2-yl]-cyclobutyl}oxy)pyridin-3-yl]isoxazol-3-olate]
4 | 0.086 µM | Oc1cc(-c2cnc(O[C@H]3C[C@@H](c4ccc(OC(F)(F)F)cn4)C3)cn2)on1 [Example 26, 5-[5-({cis-3-[5-(trifluoromethoxy)pyridin-2-yl]cyclobutyl}oxy)pyrazin-2-yl]isoxazol-3-ol]
5 | 0.017 µM | CC(C)Oc1cc([C@]2(F)C[C@@H](Oc3ccc(-c4cc(O)no4)cn3)C2)ccn1 [Example 99, sodium 5-[6-({cis-3-fluoro-3-[2-(propan-2-yloxy)pyridin-4-yl]cyclobutyl}oxy)pyridin-3-yl]isoxazol-3-olate]
6 | 0.178 µM | Oc1cc(-c2cnc(O[C@H]3C[C@H](c4ccc(C(F)F)c(F)c4)C3)cn2)on1 [Example 2, 5-[5-({trans-3-[4-(difluoromethyl)-3-fluorophenyl]cyclobutyl}oxy)pyrazin-2-yl]isoxazol-3-ol]
7 | 0.04 µM | Oc1cc(-c2ccc(O[C@H]3C[C@@H](OCc4ccc(F)c(F)c4)C3)nc2)on1 [Example 62, 2-({cis-3-[(3,4-difluorobenzyl)oxy]cyclobutyl}oxy)-5-(3-hydroxy-isoxazol-5-yl)pyridinium trifluoroacetate]
8 | 0.016 µM | Cc1cc(F)c([C@H]2C[C@@H](Oc3cnc(-c4cc(O)no4)cn3)C2)c(F)c1 [Example 51, ammonium 5-(5-{[cis-3-(2,6-difluoro-4-methyl-phenyl)-cyclobutyl]oxy}pyrazin-2-yl)isoxazol-3-olate]
9 | 0.083 µM | Oc1cc(-c2cnc(O[C@H]3C[C@@H](c4ccc(OC5CC5)cc4)C3)cn2)on1 [Example 4, sodium 5-[5-({cis-3-[4-(cyclopropyloxy)phenyl]cyclobutyl}-oxy)pyrazin-2-yl]isoxazol-3-olate]
10 | 0.022 µM | Oc1cc(-c2ccc(O[C@H]3C[C@](F)(c4ccnc(OC5CC5)c4)C3)nc2)on1 [Example 90]
11 | 0.099 µM | COc1cc(OC)cc([C@H]2C[C@@H](Oc3cnc(-c4cc(O)no4)cn3)C2)c1 [Example 54, ammonium 5-(5-{[cis-3-(3,5-dimethoxyphenyl)cyclobutyl]oxy}pyrazin-2-yl)isoxazol-3-olate]
12 | 0.025 µM | Oc1cc(-c2cnc(O[C@H]3C[C@@H](c4ccnc(OC5CC5)c4)C3)cn2)on1 [Example 34, 5-[5-({cis-3-[2-(cyclopropyloxy)pyridin-4-yl]cyclobutyl}oxy)pyrazin-2-yl]isoxazol-3-ol]
13 | 0.13 µM | Oc1cc(-c2cnc(O[C@H]3C[C@@H](c4cccc5ccccc54)C3)cn2)on1 [Example 43, 5-{5-[(cis-3-naphthalen-1-ylcyclobutyl)oxy]pyrazin-2-yl}isoxazol-3-ol]
14 | 0.019 µM | CCc1ccc([C@H]2C[C@@H](Oc3ccc(-c4cc(O)no4)cn3)C2)cc1 [Example 14, 5-(6-{[cis-3-(4-ethylphenyl)-cyclobutyl]oxy}pyridin-3-yl)isoxazol-3-ol]
15 | 0.013 µM | Oc1cc(-c2cnc(O[C@H]3C[C@H](c4ccc(OC5CC5)cc4)C3)cn2)on1 [Example 60, 5-[5-({trans-3-[4-(cyclopropyloxyl)phenyl]cyclobutyl}oxy)pyrazin-2-yl]isoxazol-3-ol]
16 | 0.022 µM | Oc1cc(-c2ccc(O[C@H]3C[C@@](F)(c4ccc(C(F)(F)F)cn4)C3)nc2)on1 [Example 97, 2-(trans-1-fluoro-3-{[5-(3-hydroxyisoxazol-5-yl)pyridin-2-yl]oxy}cyclobutyl)-5-(trifluoromethyl)pyridinium trifluoroacetate]
17 | 0.048 µM | Oc1cc(-c2cnc(O[C@H]3C[C@@H](c4cc(OC5CC5)ccc4F)C3)cn2)on1 [Example 39, 5-[5-({cis-3-[5-(cyclopropyloxy)-2-fluorophenyl]cyclobutyl}oxy)pyrazin-2-yl]isoxazol-3-ol]
18 | 0.134 µM | Oc1cc(-c2cnc(O[C@H]3C[C@@H](c4ccc(-c5ccc(C(F)(F)F)nc5)cc4)C3)cn2)on1 [Example 18, 5-{5-[(cis-3-{4-[6-(trifluoromethyl)pyridin-3-yl]phenyl}cyclobutyl)oxy]pyrazin-2-yl}isoxazol-3-ol]
19 | 0.019 µM | Oc1cc(-c2ccc(O[C@H]3C[C@@H](c4ccc(C(F)(F)F)cn4)C3)nc2)on1 [Example 24, 5-[6-({cis-3-[5-(trifloromethyl)pyridin-2-yl]cyclobutyl}oxy)pyridin-3-yl]isoxazol-3-ol]
20 | 0.237 µM | Oc1cc(-c2cnc(O[C@H]3C[C@@](F)(c4nc5ccccc5s4)C3)cn2)on1 [Example 105, ammonium 5-(5-{[trans-3-(1,3-benzothiazol-2-yl)-3-fluorocyclobutyl]oxy}pyrazin-2-yl)isoxazol-3-olate]
21 | 0.024 µM | Cc1ccc([C@H]2C[C@@H](Oc3cnc(-c4cc(O)no4)cn3)C2)c(F)c1 [Example 48, 5-(5-{[cis-3-(2-fluoro-4-methylphenyl)cyclobutyl]oxy}pyrazin-2-yl)isoxazol-3-ol]
22 | 0.053 µM | Oc1cc(-c2cnc(O[C@H]3C[C@@H](Oc4ccc(F)c(Cl)c4)C3)cn2)on1 [Example 63, ammonium 5-(5-{[cis-3-(3-chloro-4-fluorophenoxy)cyclobutyl]-oxy}pyrazin-2-yl)isoxazol-3-olate]
23 | 0.0071 µM | Oc1cc(-c2ccc(O[C@H]3C[C@@H](COc4ccccc4)C3)nc2)on1 [Example 82, 5-(3-hydroxyisoxazol-5-yl)-2-{[cis-3-(phenoxymethyl)cyclobutyl]oxy}pyridinium chloride]
24 | 0.042 µM | Oc1cc(-c2cnc(O[C@H]3C[C@@H](c4ccc(C5CC5)cc4)C3)cn2)on1 [Example 20, ammonium 5-(5-{[cis-3-(4-cyclopropylphenyl)cyclobutyl]oxy}pyrazin-2-yl)isoxazol-3-olate]
25 | 0.008 µM | Oc1cc(-c2cnc(O[C@H]3C[C@@H](c4ccc(C(F)F)cc4)C3)cn2)on1 [Example 59, 5-[5-({cis-3-[4-(difluoromethyl)phenyl]cyclobutyl}oxy)pyrazin-2-yl]isoxazol-3-ol]
26 | 0.015 µM | CCOc1cc([C@]2(F)C[C@H](Oc3ccc(-c4cc(O)no4)cn3)C2)ccn1 [Example 98, Sodium 5-(6-{[trans-3-(2-ethoxypyridin-4-yl)-3-fluorocyclobutyl]oxy}pyridin-3-yl)isoxazol-3-olate]
27 | 0.0087 µM | Oc1cc(-c2cnc(O[C@H]3C[C@@H](c4ccc(C(F)F)c(F)c4)C3)cn2)on1 [Example 1, 5-[5-({cis-3-[4-(difluoromethyl)-3-fluorophenyl]cyclobutyl}oxy)pyrazin-2-yl]isoxazol-3-ol]
28 | 0.029 µM | Oc1cc(-c2ccc(OC3CC(OCc4ccc(F)cc4F)C3)nc2)on1 (mixture of isomers) [Example 72, 5-[6-({cis-3-[(2,4-difluorobenzyl)oxy]cyclobutyl}oxy)pyridin-3-yl]isoxazol-3-ol (mixture of isomers predominantly cis)]
